{"source": "patent US8487006B2", "about": "“Method of enhancing TGF-β signalling” (Auxagen, Inc., priority 2008, dated 2013)", "key": {"[1]": {"system": "PAI-1 expression in Mv1Lu cells", "experiment": "TGF-β1-stimulated expression of PAI-1 mRNA (Northern blot / real-time RT-PCR) in Mv1Lu cells", "assay_type": "cell-based", "experimental": "(A-G) Cells were pretreated with vehicle only or with several concentrations (as indicated) of β-CD (A,C), thioridazine (B), TFP (D), chloroquine (E), monensin (F) and MDC (G) at 37° C. for 1 h. Treated cells were then stimulated with 50 pM TGF-β1. After 2 h at 37° C., the mRNAs of PAI-1 and G3PDH (as control) in the cell lysates were analyzed by Northern blot (top) and quantified using a PhosphoImager (bottom) (A,B) or real-time RT-PCR (C to G). The TGF-β-stimulated expression of PAI-1 in cells treated with vehicle only was taken as 100% (A, B) or 1 fold (C to G) of control. […] (H) Cells were pretreated with several concentrations (as indicated) of dynasore at 37° C. for 1 h and then stimulated with 50 pM TGF-β1. After 2 h at 37° C., the mRNA of PAI-1 was quantitated by real-time RT-PCR. The relative level of PAI-1 mRNA in cells treated with TGF-β1 alone was taken as 1 (100%). Experiments were carried out in triplicate. The data shown is representative of 3 independent experiments.\nThe PAI-1 gene is one of the most studied genes responsive to TGF-β stimulation^4,5. The promotor region of the PAI-gene contains several Smad2/3 binding sites that have been used as the TGF-β responsive elements to enhance the expression of a reported gene^4,5. […] Cells were pretreated with vehicle only and several concentrations of β-CD, thioridazine, TFP, MDC, monensin and chloroquine at 37° C. for 1 h. Cells were then stimulated with 50 pM TGF-β1. After 2 h at 37° C., the relative levels of PAI-1 mRNA were analyzed by quantitative Northern blot analysis (FIGS. 3A and 3B) and real-time RT-PCR (FIG. 3C-3G)."}, "[2]": {"system": "PAI-1 expression in Chinese hamster ovary cells (CHO cells)", "experiment": "TGF-β-stimulated expression of PAI-1 in CHO cells", "assay_type": "cell-based", "conditions": "dynasore 50 μM; CHO cells (unpublished results)", "experimental": "(§1) We hypothesize that TGF-β enhancers such as inhibitors of clathrin-dependent endocytosis may ameliorate atherosclerosis caused by cholesterol-induced suppression of TGF-β responsiveness in vascular cells^3,12. To test our hypothesis, we treated hypercholesterolemic ApoE-null mice with dynasore (1 mg/kg body weight) via intraperitoneal administration every two days for 8 weeks. We chose dynasore for two reasons. […] At 50 μM, it enhances TGF-β-stimulated expression of PAI-1 in these cell types by ˜4-5 fold, 2) Dynasore is the only inhibitor tested which alone is capable of stimulating PAI-1 expression. […] The plasma levels of cholesterol in wild-type mice treated with either vehicle only or dynasore were 120±10 and 125±20 mg/dl, respectively."}, "[3]": {"system": "hypercholesterolemic ApoE-null mice", "experiment": "Atherosclerosis in hypercholesterolemic ApoE-null mice (coronary artery histology, TβR-II staining, plasma cholesterol)", "assay_type": "in vivo", "experimental": "Wild-type and ApoE-null mice were treated with vehicle only (a, c) or 1 mg/kg dynasore (b, d) every two days for 8 weeks. The coronary arteries were removed from the animals and subjected to histological analysis by H & E staining (A) and indirect immunofluorescent staining for TβR-II(B). The asterisk (*) indicates the location of the lumen in coronary arteries. The arrow indicates the immunofluorescent staining of TβR-II in the aortic endothelium.\nas §1\nHowever, no TβR-II staining was found in the aortic endothelium and smooth muscle of coronary arteries in ApoE-null mice treated with vehicle only (FIG. 4Bc)."}, "[4]": {"conditions": "dynasore 1 mg/kg every two days for 8 weeks, indirect immunofluorescent staining"}}, "data": [{"smiles": "O=C(N/N=C/c1ccc(O)c(O)c1)c1cc2ccccc2cc1O", "note": "[dynasore]", "values": [{"measurement": "stimulation of PAI-1 expression by dynasore alone", "setting": "[1]; dynasore 25 μM without TGF-β1, real-time RT-PCR", "value": "to the same extent as with 50 pM TGF-β1 alone"}, {"measurement": "enhancement of TGF-β-stimulated expression of PAI-1", "setting": "[1]; dynasore 50 μM", "value": "4-5 fold"}, {"measurement": "enhancement of TGF-β1-stimulated PAI-1 expression", "setting": "[1]; dynasore 50 μM, 50 pM TGF-β1 for 2 h, real-time RT-PCR", "value": "~5", "unit": "fold"}, {"measurement": "enhancement of TGF-β-stimulated expression of PAI-1", "setting": "[2]", "value": "4-5 fold"}, {"measurement": "TβR-II staining in the aortic endothelium of coronary arteries", "setting": "[3]; [4]", "value": "appeared to restore the TβR-II staining"}, {"measurement": "TβR-II staining in the smooth muscle near the endothelium", "setting": "[3]; [4]", "value": "slight staining of TβR-II was found"}, {"measurement": "effect on atherosclerosis", "setting": "[3]; dynasore 1 mg/kg intraperitoneal every two days for 8 weeks", "value": "effectively ameliorates atherosclerosis"}, {"measurement": "macrophages or foam cells in the endothelium of the coronary arteries", "setting": "[3]; dynasore 1 mg/kg intraperitoneal every two days for 8 weeks, H & E staining", "value": "very few macrophages or foam cells were found"}]}]}
